Measured values reported in patent US11033539B2, “Compounds of formulas (VII), (VIII), (IX), (XI), (XII), (XIII), and (XIV) as muscarinic receptor 4(M4) antagonists for treating neurological diseases” (Neurocrine Biosciences, Inc., priority 2015, dated 2021).

biological target: human M4 receptor (Homo sapiens (Human), UniProt P08173); assay: Radioligand (tritiated N-methylscopolamine) binding assay, M4; details: Ki against the M4 receptor; membranes from CHO cells expressing human M4; tritiated N-methylscopolamine 1.5 nM; read-out: Ki
Summary of the method: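 Ki values come from displacement of 1.5 nM radioligand from membranes of receptor-expressing CHO cells, with filter-trapped radioactivity counted after rapid vacuum filtration. Twelve compound concentrations (10 μM to […]) were incubated for 90 min at 37 °C at pH 7.4.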

Sequence of human M4 receptor (P08173 whole entry): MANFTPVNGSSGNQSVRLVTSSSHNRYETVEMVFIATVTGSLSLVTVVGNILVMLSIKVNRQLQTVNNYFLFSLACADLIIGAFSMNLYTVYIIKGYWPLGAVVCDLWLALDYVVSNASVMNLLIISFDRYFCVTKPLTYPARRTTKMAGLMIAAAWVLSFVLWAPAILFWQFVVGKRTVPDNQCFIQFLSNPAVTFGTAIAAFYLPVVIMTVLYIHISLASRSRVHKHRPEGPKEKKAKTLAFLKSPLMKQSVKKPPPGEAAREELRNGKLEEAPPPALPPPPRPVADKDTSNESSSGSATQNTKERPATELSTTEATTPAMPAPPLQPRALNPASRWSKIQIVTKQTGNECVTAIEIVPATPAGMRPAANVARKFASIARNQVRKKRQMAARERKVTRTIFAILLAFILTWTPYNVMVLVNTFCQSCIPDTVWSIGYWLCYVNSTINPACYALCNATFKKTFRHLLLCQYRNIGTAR

SMILES | Ki [nM]
Cc1nc(CN2CCC(CCNC(=O)N3CCN(c4cc(F)c(F)c(F)c4)C[C@H]3C)CC2)cs1 [6-12, (2R)-2-methyl-N-(2-{1-[(2-methyl-1,3-thiazol-4-yl)methyl]piperidin-4-yl}ethyl)-4-(3,4,5-trifluorophenyl)piperazine-1-carboxamide] | 10 to 100
C[C@@H]1CN(c2cc(F)c(F)c(F)c2)CCN1C(=O)NCCC1CCN(Cc2ccccc2OC(F)F)CC1 [6-13, (2R)-N-[2-(1-{[2-(difluoromethoxy)phenyl]methyl}piperidin-4-yl)ethyl]-2-methyl-4-(3,4,5-trifluorophenyl)piperazine-1-carboxamide] | 10 to 100
CC(c1ccccc1)N1CCC(CCNC(=O)N2CCN(c3cc(F)c(F)c(F)c3)C[C@H]2C)CC1 (stereo partly drawn) [6-14, (2R)-2-methyl-N-{2-[1-(1-phenylethyl)piperidin-4-yl]ethyl}-4-(3,4,5-trifluorophenyl)piperazine-1-carboxamide] | 10 to 100
O=C(NCCC1CCN(Cc2ccc(F)cc2)CC1)c1ccc(OCc2ccccc2)cc1 [6-15, 4-(benzyloxy)-N-(2-{1-[(4-fluorophenyl)methyl]piperidin-4-yl}ethyl)benzamide] | 10 to 100
C[C@@H]1CN(c2cc(F)c(F)c(F)c2)CCN1C(=O)NCCC1CCN(Cc2ccc(C(N)=O)cc2)CC1 [6-16, (2R)-N-(2-{1-[(4-carbamoylphenyl)methyl]piperidin-4-yl}ethyl)-2-methyl-4-(3,4,5-trifluorophenyl)piperazine-1-carboxamide] | 10 to 100
C[C@@H]1CN(c2cc(F)c(F)c(F)c2)CCN1C(=O)NCCC1CCN(Cc2cccc(F)c2F)CC1 [6-17, (2R)-N-(2-{1-[(2,3-difluorophenyl)methyl]piperidin-4-yl}ethyl)-2-methyl-4-(3,4,5-trifluorophenyl)piperazine-1-carboxamide] | 10 to 100
C[C@@H]1CN(c2cc(F)c(F)c(F)c2)CCN1C(=O)NCCC1CCN(Cc2cccc(C#N)c2)CC1 [6-18, (2R)-N-(2-{1-[(3-cyanophenyl)methyl]piperidin-4-yl}ethyl)-2-methyl-4-(3,4,5-trifluorophenyl)piperazine-1-carboxamide] | 10 to 100
Cc1nnc(C(c2ccccc2)N2CCC(CCNC(=O)N3CCN(c4cc(F)c(F)c(F)c4)C[C@H]3C)CC2)o1 (stereo partly drawn) [6-19, (2R)-2-methyl-N-(2-{1-[(5-methyl-1,3,4-oxadiazol-2-yl)(phenyl)methyl]piperidin-4-yl}ethyl)-4-(3,4,5-trifluorophenyl)piperazine-1-carboxamide] | 100 to 1000
C[C@@H]1CN(c2cc(F)c(F)c(F)c2)CCN1C(=O)NCCC1CCN(Cc2cccc(OC(F)(F)F)c2)CC1 [6-20, (2R)-2-methyl-N-[2-(1-{[3-(trifluoromethoxy)phenyl]methyl}piperidin-4-yl)ethyl]-4-(3,4,5-trifluorophenyl)piperazine-1-carboxamide] | 100 to 1000
C[C@@H]1CN(c2cc(F)c(F)c(F)c2)CCN1C(=O)NCCC1CCN(Cc2ccccc2OC(F)(F)F)CC1 [6-21, (2R)-2-methyl-N-[2-(1-{[2-(trifluoromethoxy)phenyl]methyl}piperidin-4-yl)ethyl]-4-(3,4,5-trifluorophenyl)piperazine-1-carboxamide] | 100 to 1000
C[C@@H]1CN(c2cc(F)c(F)c(F)c2)CCN1C(=O)NCCC1CCN(Cc2ccc(F)c(F)c2F)CC1 [6-22, (2R)-2-methyl-4-(3,4,5-trifluorophenyl)-N-(2-{1-[(2,3,4-trifluorophenyl)methyl]piperidin-4-yl}ethyl)piperazine-1-carboxamide] | 100 to 1000
C[C@@H]1CN(c2cc(F)c(F)c(F)c2)CCN1C(=O)NCCC1CCN(Cc2cc(F)cc(F)c2)CC1 [6-23, (2R)-N-(2-{1-[(3,5-difluorophenyl)methyl]piperidin-4-yl}ethyl)-2-methyl-4-(3,4,5-trifluorophenyl)piperazine-1-carboxamide] | 100 to 1000

The remaining lines, values ahead:

Ki [nM] | SMILES
100 to 1000 | C[C@@H]1CN(c2cc(F)c(F)c(F)c2)CCN1C(=O)NCCC1CCN(Cc2ccc(OC(F)(F)F)cc2)CC1 [6-24, (2R)-2-methyl-N-[2-(1-{[4-(trifluoromethoxy)phenyl]methyl}piperidin-4-yl)ethyl]-4-(3,4,5-trifluorophenyl)piperazine-1-carboxamide]
100 to 1000 | C[C@@H]1CN(c2cc(F)c(F)c(F)c2)CCN1C(=O)NCCC1CCN(Cc2cc(F)ccc2F)CC1 [6-25, (2R)-N-(2-{1-[(2,5-difluorophenyl)methyl]piperidin-4-yl}ethyl)-2-methyl-4-(3,4,5-trifluorophenyl)piperazine-1-carboxamide]
100 to 1000 | C[C@@H]1CN(c2cc(F)c(F)c(F)c2)CCN1C(=O)NCCC1CCN(Cc2c(F)cccc2F)CC1 [6-28, (2R)-N-(2-{1-[(2,6-difluorophenyl)methyl]piperidin-4-yl}ethyl)-2-methyl-4-(3,4,5-trifluorophenyl)piperazine-1-carboxamide]
100 to 1000 | C[C@@H]1CN(c2cc(F)c(F)c(F)c2)CCN1C(=O)NCCC1CCN(Cc2ccccc2C#N)CC1 [6-29, (2R)-N-(2-{1-[(2-cyanophenyl)methyl]piperidin-4-yl}ethyl)-2-methyl-4-(3,4,5-trifluorophenyl)piperazine-1-carboxamide]
100 to 1000 | C[C@@H]1CN(c2cc(F)c(F)c(F)c2)CCN1C(=O)NCCC1CCN(Cc2ccc(C#N)cc2F)CC1 [6-30, (2R)-N-(2-{1-[(4-cyano-2-fluorophenyl)methyl]piperidin-4-yl}ethyl)-2-methyl-4-(3,4,5-trifluorophenyl)piperazine-1-carboxamide]
100 to 1000 | C[C@@H]1CN(c2ncc(C(F)(F)F)cn2)CCN1C(=O)NCCC1CCN(Cc2ccncc2)CC1 [6-31, (2R)-2-methyl-N-{2-[1-(pyridin-4-ylmethyl)piperidin-4-yl]ethyl}-4-[5-(trifluoromethyl)pyrimidin-2-yl]piperazine-1-carboxamide]
10 to 100 | C[C@@H]1CN(c2ncc(C(F)(F)F)cn2)CCN1C(=O)NCCC1CCN(Cc2cccnc2)CC1 [6-32, (2R)-2-methyl-N-{2-[1-(pyridin-3-ylmethyl)piperidin-4-yl]ethyl}-4-[5-(trifluoromethyl)pyrimidin-2-yl]piperazine-1-carboxamide]
100 to 1000 | C[C@@H]1CN(c2ncc(C(F)(F)F)cn2)CCN1C(=O)NCCC1CCN(Cc2ccccn2)CC1 [6-33, (2R)-2-methyl-N-{2-[1-(pyridin-2-ylmethyl)piperidin-4-yl]ethyl}-4-[5-(trifluoromethyl)pyrimidin-2-yl]piperazine-1-carboxamide]
100 to 1000 | C[C@@H]1CN(c2ncc(C(F)(F)F)cn2)CCN1C(=O)NCCC1CCN(Cc2ccccc2C#N)CC1 [6-34, (2R)-N-(2-{1-[(2-cyanophenyl)methyl]piperidin-4-yl}ethyl)-2-methyl-4-[5-(trifluoromethyl)pyrimidin-2-yl]piperazine-1-carboxamide]
10 to 100 | C[C@@H]1CN(c2ncc(C(F)(F)F)cn2)CCN1C(=O)NCCC1CCN(Cc2ccccc2F)CC1 [6-38, (2R)-N-(2-{1-[(2-fluorophenyl)methyl]piperidin-4-yl}ethyl)-2-methyl-4-[5-(trifluoromethyl)pyrimidin-2-yl]piperazine-1-carboxamide]
100 to 1000 | C[C@@H]1CN(c2ncc(C(F)(F)F)cn2)CCN1C(=O)NCCC1CCN(Cc2cncnc2)CC1 [6-39, (2R)-2-methyl-N-{2-[1-(pyrimidin-5-ylmethyl)piperidin-4-yl]ethyl}-4-[5-(trifluoromethyl)pyrimidin-2-yl]piperazine-1-carboxamide]
10 to 100 | C[C@@H]1CN(c2ncc(C(F)(F)F)cn2)CCN1C(=O)NCCC1CCN(Cc2ccc(C#N)cc2)CC1 [6-41, (2R)-N-(2-{1-[(4-cyanophenyl)methyl]piperidin-4-yl}ethyl)-2-methyl-4-[5-(trifluoromethyl)pyrimidin-2-yl]piperazine-1-carboxamide]
10 to 100 | C[C@@H]1CN(c2ncc(C#N)cn2)C[C@H](C)N1C(=O)NCCC1CCN(Cc2ccc(N(C)C)cc2)CC1 [6-43, (2R,6S)-4-(5-cyanopyrimidin-2-yl)-N-[2-(1-{[4-(dimethylamino)-phenyl]methyl}piperidin-4-yl)ethyl]-2,6-dimethylpiperazine-1-carboxamide]
100 to 1000 | C[C@@H]1CN(c2ncc(C#N)cn2)C[C@H](C)N1C(=O)NCCC1CCN(CCc2ccccc2)CC1 [6-44, (2R,6S)-4-(5-cyanopyrimidin-2-yl)-2,6-dimethyl-N-{2-[1-(2-phenylethyl)piperidin-4-yl]ethyl}piperazine-1-carboxamide]
100 to 1000 | C[C@@H]1CN(c2ncc(C#N)cn2)C[C@H](C)N1C(=O)NCCC1CCN(Cc2ccc(C#N)cc2)CC1 [6-45, (2R,6S)-N-(2-{1-[(4-cyanophenyl)methyl]piperidin-4-yl}ethyl)-4-(5-cyanopyrimidin-2-yl)-2,6-dimethylpiperazine-1-carboxamide]
100 to 1000 | Cc1cc(CN2CCC(CCNC(=O)N3[C@H](C)CN(c4cnc(C(F)(F)F)nc4)C[C@@H]3C)CC2)ccc1O [6-49, (2R,6S)-N-(2-{1-[(4-hydroxy-3-methylphenyl)methyl]piperidin-4-yl}ethyl)-2,6-dimethyl-4-[2-(trifluoromethyl)pyrimidin-5-yl]piperazine-1-carboxamide]
10 to 100 | C[C@@H]1CN(c2cnc(C(F)(F)F)nc2)C[C@H](C)N1C(=O)NCCC1CCN(Cc2cccc(F)c2)CC1 [6-51, (2R,6S)-N-(2-{1-[(3-fluorophenyl)methyl]piperidin-4-yl}ethyl)-2,6-dimethyl-4-[2-(trifluoromethyl)pyrimidin-5-yl]piperazine-1-carboxamide]
10 to 100 | C[C@@H]1CN(c2cnc(C(F)(F)F)nc2)C[C@H](C)N1C(=O)NCCC1CCN(Cc2ccccc2F)CC1 [6-52, (2R,6S)-N-(2-{1-[(2-fluorophenyl)methyl]piperidin-4-yl}ethyl)-2,6-dimethyl-4-[2-(trifluoromethyl)pyrimidin-5-yl]piperazine-1-carboxamide]
